According to patent US9828630B2, “Methods of enhancing genetic diagnosis” (BioLamina AB, priority 2011, dated 2017):

Columns and labels:
human ES and iPS cells = test: Long-term culture with single cell dissociation passaging; assay type: cell-based; details: for proliferation rate / increase in number of cells compared with Matrigel or classical methods: FIG. 8; for passages proliferated: O3 medium
Description: Human ES cells were cultured on r-laminin-521-coated laboratory dishes in chemically defined O3 medium (described in Rodin et al., Nature Biotechnol., vol. 28, pp. 611-615 (2010)) at 37° C. in 5% CO2. Cells were routinely passed once every 10-12 days by exposure to Trypsin-EDTA solution (GIBCO Invitrogen) for 5 minutes at 37° C. They were then gently pipetted to break into single-cell suspension and defined trypsin inhibitor (GIBCO Invitrogen) was added. The cell suspension was centrifuged […], the supernatant discarded, the cell pellet resuspended in prewarmed O3 medium, and cells were then passed through a 40 μm sieve. After that cells were plated on new r-laminin-521-coated dishes at a concentration 30 Kcells/cm^2 (1:25-1:30 split ratio). Cells were fed once a day with fresh medium prewarmed in an incubator for 1 hour, except for the first day after a passage, when only a few drops of fresh medium were added. Control cells of the same line were cultured on Matrigel (BD Biosciences) in O3 medium as described in Rodin et al., Nature Biotechnol., vol. 28, pp. 611-615 (2010). Control cells were passaged in pieces.
Human ES cells of HS181 and HS401 were cultured on LN-521-coated culture dishes in O3 medium (described in Rodin et al., Nature Biotechnol., vol. 28, pp. 611-615 (2010) with pH was adjusted to 7.35), mTeSR1 (STEMCELL Technologies) and chemically defined and xeno-free TeSR2 (STEMCELL Technologies) at 37° C., 5% CO2. Initially, cells of the lines were transferred onto a LN-521 coating from a human feeder cell layer by careful scratching using a sterile knife with subsequent trypsinization, or the cells were trypsinized into single cell suspension from a LN-511 coating. The cells were provided once a day with fresh medium pre-warmed in an incubator for one hour, except for the first day after plating, when only a few drops of fresh medium were added. Cells were routinely passed once in 10-12 days by exposure to Trypsin/EDTA (GIBCO Invitrogen Corporation, Paisley, Scotland) for 5 minutes at 37° C., 5% CO2. They were then gently pipetted to break into single-cell suspension and a Defined Trypsin Inhibitor (GIBCO Invitrogen) was added. The cell suspension was centrifuged at 25 rcf for 4 minutes, the supernatant was discarded, the cell pellet was resuspended in prewarmed O3 medium, and the cells were then passed through a 40 μm sieve. Subsequently, the cells were plated on new LN-521-coated dishes at a concentration of 30,000 cells/cm^2 in 1:25-1:30 split ratios. Control cells of the same line were cultured on Matrigel (STEMCELL Technologies) and LN-511 in O3 medium as described previously.^9
For defined and xeno-free cultures, TeSR2 (STEMCELL Technologies) medium and defined free from any animal derived component TrypLE™ Select (GIBCO Invitrogen Corporation, Paisley, Scotland) enzyme were used. The cells were passed every 10-14 days by exposure to TrypLE™ Select for 4-5 minutes at 37° C., 5% CO2. Then, the enzyme was carefully aspirated and prewarmed TeSR2 medium was added. After that, the cells were gently pipetted to break into single-cell suspension, centrifuged, the supernatant was discarded, and the cell pellet was resuspended in prewarmed TeSR2. The cells were then passed through a 40 μm sieve and plated on a fresh LN-521 coated dish.

hES cells = test: In vivo imaging and migration assay; assay type: cell-based, human
Description: 24-well plates were coated by extracellular matrix proteins and blocked by O3 medium containing bovine serum albumin. The ES cells were plated at cell density of 30,000-40,000 cells/cm^2 onto extracellular matrix-coated plates and left to adhere for half an hour in a cell incubator. After that, the plate was transferred into high content imaging system Operetta (PerkinElmer) equipped with environmental control unit, which allowed to keep 37° C., 5% CO2. For two movies that were made, the brightfield images were taken once in 15 minutes during 24 hours after plating using Harmony software (PerkinElmer), exported, and analyzed using ImageJ software (NIH, the US). For migration assay the images were taken every seven minutes during 18 hours after plating. Images acquired between the fifth and seventh hours after plating were analyzed using MTrackJ plug-in (University Medical Center, Rotterdam, The Netherlands). 100 attached cells on each coating were traced and mean distances from the current to the previous point of the track were calculated. Error bars show standard error of the mean s.e.m. (n=100).

human ES cells = test: Cell survival assay, 24 hours (1 day) after plating from single cell suspension; assay type: cell-based; details: for adhesion / survival without additives compared with ROCK inhibitor treated cells: 1 day (24 hours) after plating; for survival / attachment of dissociated hES cells 24 hours (one day) after plating: single cell suspension, O3 medium
Description: The assay was performed as described (Extracellular Matrix Protocols, 2000). Briefly, 96-well plates were coated by extracellular matrix proteins as described above and blocked by O3 medium containing bovine serum albumin. The ES cells were plated at a cell density of 600 cell/mm^2 upon extracellular matrix-coated plates and were left to adhere for either 1 hour or 1 day at the cell incubator. Non-adherent cells were washed away, and adherent cells were fixed for 20 min by 5% glutaraldehyde, stained by 0.1% Crystal Violet.
The survival assay was performed as described for the cell adhesion assay above, except that the cells were left in the cell incubator for 24 hours. For inhibition of survival assay, the cells were kept in a medium with function blocking antibodies at the concentrations recommended by the manufacturer or pathway inhibitors at concentrations indicated in the text for 30 minutes, and then plated on the coated dishes. All the experiments were performed in quadruplicate.
Pluripotent hES cells express α1, α5, β1, β2 and γ1 laminin chains. To compare the adhesion and clonal survival of hES cells plated from single cell suspension to different coating substrata, hES cells growing as monolayers on LN-511 or as clusters on a feeder layer were trypsinized into single cell suspension in O3 medium and plated on cell culture dishes coated with Matrigel, LN-111, LN-511, LN-521 or a mixture of LN-511 and LN-521, in the absence or presence of a ROCK inhibitor (Y-27632) and analyzed after 24 hours.

LN-521: protein formed by joining laminin α5, β2 and γ1 chains; human recombinant, produced in HEK293 cells
passages cultured (human ES and iPS cells; ChiPSW iPS cells, mTeSR1): 3 passages | robust proliferation with stable and high rate (human ES and iPS cells; Example 1, O3 medium, 1:25 to 1:30, 3 months): at least 9 passages | proliferation rate / increase in number of cells compared with Matrigel or classical methods (human ES and iPS cells): much faster rate | proliferation rate / increase in number of cells compared with Matrigel or classical methods (human ES and iPS cells; listed as laminin-521): higher rate | passages proliferated (human ES and iPS cells; H1 cells, 6 months): ≥ 15 passages | passages proliferated (human ES and iPS cells; HS181 cells, 9 months): at least 24 passages | passages proliferated (human ES and iPS cells; HS401 cells, 2 months): ≥ 5 passages | passages to undergo the same number of cell doublings as 20 passages (100 days / 3 months) by conventional methods on Matrigel (human ES and iPS cells; single cell suspension passaging, 1 month): 3 passages | cell migration compared with Matrigel (imaging) (hES cells; 24 hours imaging): much faster | motility of hES cells compared with other coatings (hES cells; between fifth and seventh hours after plating, FIG. 14): higher | adhesion / survival without additives compared with ROCK inhibitor treated cells (human ES cells): similar | adhesion / survival without additives compared with ROCK inhibitor treated cells (human ES cells; listed as LN-532): no ROCK inhibitor is necessary | survival of cells compared with LN-511 (human ES cells; 24 hours, no ROCK inhibitor): significantly higher | cell shape 24 hours after plating on LN-521 (human ES cells; absence or presence of ROCK inhibitor): round | survival relative to Matrigel (human ES cells; exogenous bFGF removed from the O3 medium): 20 times | survival 24 hours after plating (human ES cells; medium lacking all growth factors of the TeSR1 formulation (bFGF, LiCl, GABA, pipecolic acid, TGFβ)): survived | survival after 24 hours relative to LN-511 (human ES cells; no ROCK inhibitor): three | survival / attachment of dissociated hES cells 24 hours (one day) after plating (human ES cells; no ROCK inhibitor): did so as single cells | survival / attachment of dissociated hES cells 24 hours (one day) after plating (human ES cells; no ROCK inhibitor, listed as human r-laminin-521): survived | survival / attachment of dissociated hES cells 24 hours (one day) after plating (human ES cells; no ROCK inhibitor, listed as laminin-521): survived and started to proliferate
